# Data published in patent US9302999B2, “Substituted triazoles as herbicides” (E. I. DU PONT DE NEMOURS AND COMPANY, priority 2012, dated 2016).
# How the values were obtained:
# Assay type in all cases: in vivo
# [1] = system: large crabgrass (Digitaria sanguinalis); experiment: Test C pre-/postemergence: large crabgrass
# In short: (§1)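 Visual injury scored 0–100 (100 = complete control) against untreated controls after 13–15 greenhouse days. Surfactant-containing solvent formulations applied either to soil after sowing (loam/sand) or over 1- to 4-leaf plants, 2–18 cm tall.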
# [2] = system: galium (catchweed bedstraw, Galium aparine); experiment: Test C pre-/postemergence: galium
# In short: as §1
# [3] = system: johnsongrass (Sorghum halepense); experiment: Test C pre-/postemergence: johnsongrass
# In short: as §1
# wild oat (Avena fatua) = experiment: Test C pre-/postemergence: wild oat; settings: Postemergence
# In short: as §1
# [4] = system: ducksalad (Heteranthera limosa); experiment: Test B flooded paddy: ducksalad; settings: Flood; 250 g ai/ha; applied to paddy water at 2-leaf stage; visually evaluated after 13 to 15 days
# In short: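 Visual ratings (0 = no effect, 100 = complete control) versus untreated controls were taken 13–15 days after treatment of greenhouse plants. Treatment was added to paddy water held at 3 cm depth on 2-leaf-stage seedlings.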
# [5] = system: ryegrass, Italian (Italian ryegrass, Lolium multiflorum); experiment: Test C pre-/postemergence: ryegrass, Italian
# In short: as §1
# corn (Zea mays) = experiment: Test C pre-/postemergence: corn
# In short: as §1
# [6] = system: morningglory (Ipomoea coccinea); experiment: Test C pre-/postemergence: morningglory
# In short: as §1
# [7] = system: foxtail, giant (giant foxtail, Setaria faberii); experiment: Test C pre-/postemergence: foxtail, giant
# In short: as §1
# kochia (Kochia scoparia) = experiment: Test C pre-/postemergence: kochia; settings: Postemergence
# In short: as §1
# [8] = system: velvetleaf (Abutilon theophrasti); experiment: Test C pre-/postemergence: velvetleaf
# In short: as §1
# [9] = Postemergence, 31 g ai/ha, scale 0 to 100 (0 no effect, 100 complete control)
# [10] = Postemergence, 62 g ai/ha, scale 0 to 100 (0 no effect, 100 complete control)
# [11] = Postemergence, 125 g ai/ha, scale 0 to 100, 0 no effect, 100 complete control
# [12] = Postemergence, 250 g ai/ha, scale 0 to 100
# [13] = Preemergence, 31 g ai/ha, scale of 0 to 100, 0 is no effect, 100 is complete control
# [14] = Preemergence, 62 g ai/ha, scale of 0 to 100, 0 is no effect, 100 is complete control
# [15] = Preemergence, 125 g ai/ha, scale 0 to 100, 0 no effect, 100 complete control
# [16] = Preemergence, 250 g ai/ha, scale 0 to 100, 0 no effect, 100 complete control
# [17] = 31 g ai/ha, scale 0 to 100 (0 no effect, 100 complete control)
# [18] = 62 g ai/ha, scale 0 to 100 (0 no effect, 100 complete control)
# [19] = 125 g ai/ha, scale 0 to 100, 0 no effect, 100 complete control
smiles,measurement,setting,value
CCc1nn(-c2ccc(C(F)(F)F)cc2)nc1Cc1ccnc(C(F)(F)F)c1 [Compound 155],"Plant response rating, Crabgrass, Large",[1]; [9],20
same,"Plant response rating, Crabgrass, Large",[1]; [10],45
same,"Plant response rating, Crabgrass, Large",[1]; [11],75
same,"Plant response rating, Crabgrass, Large",[1]; [12],85
same,"Plant response rating, Crabgrass, Large",[1]; [13],100
same,"Plant response rating, Crabgrass, Large",[1]; [14],100
same,"Plant response rating, Crabgrass, Large",[1]; [15],100
same,"Plant response rating, Crabgrass, Large",[1]; [16],100
same,"Plant response rating, Galium",[2]; [9],70
same,"Plant response rating, Galium",[2]; [10],75
same,"Plant response rating, Galium",[2]; [11],80
same,"Plant response rating, Galium",[2]; [12],95
same,"Plant response rating, Galium",[2]; [13],98
same,"Plant response rating, Galium",[2]; [14],100
same,"Plant response rating, Galium",[2]; [15],100
same,"Plant response rating, Galium",[2]; [16],100
same,"Plant response rating, Johnsongrass",[3]; [9],20
same,"Plant response rating, Johnsongrass",[3]; [10],80
same,"Plant response rating, Johnsongrass",[3]; [11],98
same,"Plant response rating, Johnsongrass",[3]; [12],98
same,"Plant response rating, Johnsongrass",[3]; [13],80
same,"Plant response rating, Johnsongrass",[3]; [14],90
same,"Plant response rating, Johnsongrass",[3]; [15],90
same,"Plant response rating, Johnsongrass",[3]; [16],95
same,"Plant response rating, Oat, Wild",wild oat (Avena fatua); [17],40
same,"Plant response rating, Oat, Wild",wild oat (Avena fatua); [18],45
same,"Plant response rating, Oat, Wild",wild oat (Avena fatua); [19],75
same,"Plant response rating, Oat, Wild","wild oat (Avena fatua); 250 g ai/ha, scale 0 to 100",90
same,"Plant response rating, Ducksalad (0 to 100 scale, 0 is no effect, 100 is complete control)",[4],80
same,"Plant response rating, Ryegrass, Italian",[5]; [9],35
same,"Plant response rating, Ryegrass, Italian",[5]; [10],45
same,"Plant response rating, Ryegrass, Italian",[5]; [11],65
same,"Plant response rating, Ryegrass, Italian",[5]; [12],70
same,"Plant response rating, Ryegrass, Italian",[5]; [13],35
same,"Plant response rating, Ryegrass, Italian",[5]; [14],85
same,"Plant response rating, Ryegrass, Italian",[5]; [15],85
same,"Plant response rating, Ryegrass, Italian",[5]; [16],90
same,"Plant response rating, Corn",corn (Zea mays); [9],25
same,"Plant response rating, Corn",corn (Zea mays); [10],25
same,"Plant response rating, Corn",corn (Zea mays); [11],45
same,"Plant response rating, Corn",corn (Zea mays); [12],45
same,"Plant response rating, Corn",corn (Zea mays); [13],5
same,"Plant response rating, Corn",corn (Zea mays); [14],5
same,"Plant response rating, Corn",corn (Zea mays); [15],10
same,"Plant response rating, Corn",corn (Zea mays); [16],45
same,"Plant response rating, Morningglory",[6]; [9],55
same,"Plant response rating, Morningglory",[6]; [10],65
same,"Plant response rating, Morningglory",[6]; [11],65
same,"Plant response rating, Morningglory",[6]; [12],98
same,"Plant response rating, Morningglory",[6]; [13],10
same,"Plant response rating, Morningglory",[6]; [14],40
same,"Plant response rating, Morningglory",[6]; [15],60
same,"Plant response rating, Morningglory",[6]; [16],90
same,"Plant response rating, Foxtail, Giant",[7]; [9],15
same,"Plant response rating, Foxtail, Giant",[7]; [10],45
same,"Plant response rating, Foxtail, Giant",[7]; [11],75
same,"Plant response rating, Foxtail, Giant",[7]; [12],100
same,"Plant response rating, Foxtail, Giant",[7]; [13],100
same,"Plant response rating, Foxtail, Giant",[7]; [14],100
same,"Plant response rating, Foxtail, Giant",[7]; [15],100
same,"Plant response rating, Foxtail, Giant",[7]; [16],100
same,"Plant response rating, Kochia",kochia (Kochia scoparia); [17],90
same,"Plant response rating, Kochia",kochia (Kochia scoparia); [18],90
same,"Plant response rating, Kochia",kochia (Kochia scoparia); [19],95
same,"Plant response rating, Kochia","kochia (Kochia scoparia); 250 g ai/ha, scale 0 to 100",95
same,"Plant response rating, Velvetleaf",[8]; [9],50
same,"Plant response rating, Velvetleaf",[8]; [10],60
same,"Plant response rating, Velvetleaf",[8]; [11],75
same,"Plant response rating, Velvetleaf",[8]; [12],80
same,"Plant response rating, Velvetleaf",[8]; [13],30
same,"Plant response rating, Velvetleaf",[8]; [14],80
same,"Plant response rating, Velvetleaf",[8]; [15],85
same,"Plant response rating, Velvetleaf",[8]; [16],100
